“And” between values parts separate entries of the source, which are not always exact repeats. Identical values can stand only once.
Key:
[1] = target: purified CaMKIIα binding to GST–GluN2B-c WT (Homo sapiens, UniProt Q9UQM7); assay: CaMKII binding to immobilized GST–GluN2B-c in vitro; settings: for bound CaMKIIα (immunoblot, relative): Ca2+/CaM
Method: CaMKII–GluN2B binding assays were done as described[9],[13],[25]. Briefly, GST–GluN2B-c tail (GST–2BC) was immobilized on anti-GST antibody-coated microtiter plates (Thermo Scientific), blocked for 30 min with 5% BSA and then overlaid with […] CaMKII (subunit concentration) in PIPES-buffered saline (pH 7.2) containing 2 mM Ca^2+, 1 μM CaM, 1 mM Mg^2+, 0.1% BSA and 0.1% Tween-20 for 20 min at room temperature. […] After extensive washes in buffer containing 1 mM EGTA, GST–2BC and bound CaMKII were eluted for 10 min in SDS loading buffer at 95 °C. Bound CaMKII was measured via immunoblot.

[2] = tested on: paCaMKII binding to GST-2BC; assay: Blue light-induced paCaMKII pulldown to immobilized GST-2BC; settings: Dark, 100 µM ADP
Description: Extended Data Fig. 1 paCaMKII photoactivation-induced sLTP requires GluN2B binding. Data are presented as mean values +/− SEM. a, Representative images of GFP-paCaMKII WT and mCherry-2BC expressed in cultured hippocampal neurons before and after blue light stimulation. Time course of correlation indices of GFP-paCaMKII and mCh-2BC after photoactivation. Images were acquired in a single plane ever 10 s (n = 4 cells). Scale bar indicates 10 µm. b, Schematic of blue light-induced paCaMKII pulldown to immobilized GST-2BC. c, Binding of […] to immobilized GST-2BC was induced by blue light in the presence of either 100 ADP µM alone or without nucleotide. (n = 4 independent samples; *p < 0.05; one-way Kruskal Wallis with Dunn’s comparison test). Dark:Light+ADP p = 0.0132; Dark:Light-ADP p = 0.1860; Light+ADP:Light-ADP p = 0.9779. d, Schematic of how K42M and I205K CaMKII mutations affect enzymatic activity and the induction of GluN2B binding. e, Representative images of dissociated mouse WT and GluN2B^ΔCaMKII hippocampal cultures expressing GFP-paCaMKII WT and mCherry cell fill before and after photoactivation. Scale bar indicates 5 µm. n = 9, 9 cells; See Fig. 1f, g (right) for quantification. Source data

Arg(h) = Arg(h) (Homo sapiens, UniProt P42684); assay: Kinase selectivity panel (residual activity at 1 μM); assay type: biochemical; settings: inhibitor at 1 μM; read-out: residual kinase activity in % of maximal activity
Sequence of Arg(h) (P42684 whole entry): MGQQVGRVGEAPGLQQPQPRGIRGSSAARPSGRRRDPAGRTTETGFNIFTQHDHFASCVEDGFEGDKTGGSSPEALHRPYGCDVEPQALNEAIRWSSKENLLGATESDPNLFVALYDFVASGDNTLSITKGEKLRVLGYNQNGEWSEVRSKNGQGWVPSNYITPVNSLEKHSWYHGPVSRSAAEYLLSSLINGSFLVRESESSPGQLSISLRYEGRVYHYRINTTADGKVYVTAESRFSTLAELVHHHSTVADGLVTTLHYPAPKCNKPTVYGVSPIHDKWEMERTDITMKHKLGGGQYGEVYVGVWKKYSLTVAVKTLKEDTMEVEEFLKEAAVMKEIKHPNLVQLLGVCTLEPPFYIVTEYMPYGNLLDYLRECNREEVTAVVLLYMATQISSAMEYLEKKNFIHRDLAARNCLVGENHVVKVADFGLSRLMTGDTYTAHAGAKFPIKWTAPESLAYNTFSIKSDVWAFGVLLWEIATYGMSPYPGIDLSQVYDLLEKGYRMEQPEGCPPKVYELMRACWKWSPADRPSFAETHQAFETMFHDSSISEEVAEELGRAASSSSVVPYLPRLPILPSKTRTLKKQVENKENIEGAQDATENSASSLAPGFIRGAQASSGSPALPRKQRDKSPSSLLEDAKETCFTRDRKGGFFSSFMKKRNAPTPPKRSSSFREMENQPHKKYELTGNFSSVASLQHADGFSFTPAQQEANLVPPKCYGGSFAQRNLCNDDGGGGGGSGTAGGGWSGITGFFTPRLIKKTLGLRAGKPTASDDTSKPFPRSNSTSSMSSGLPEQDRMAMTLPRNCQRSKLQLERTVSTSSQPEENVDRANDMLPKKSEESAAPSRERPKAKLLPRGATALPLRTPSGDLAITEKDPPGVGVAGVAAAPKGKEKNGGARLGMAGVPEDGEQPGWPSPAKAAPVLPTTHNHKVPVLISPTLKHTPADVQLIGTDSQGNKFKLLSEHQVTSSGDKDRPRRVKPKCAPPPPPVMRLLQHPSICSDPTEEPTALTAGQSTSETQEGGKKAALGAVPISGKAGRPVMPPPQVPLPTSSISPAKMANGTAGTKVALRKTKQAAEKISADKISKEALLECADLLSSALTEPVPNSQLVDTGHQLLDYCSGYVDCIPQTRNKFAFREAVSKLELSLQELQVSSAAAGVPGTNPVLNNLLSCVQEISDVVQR

AMPKα1(h) = AMPKα1(h) (Homo sapiens, UniProt Q13131); assay: as above; assay type: biochemical; settings: inhibitor at 1 μM; read-out: residual kinase activity in % of maximal activity
Aurora-C(h) = Aurora-C(h) (Homo sapiens, UniProt Q9UQB9); assay: as above; assay type: biochemical; settings: inhibitor at 1 μM; read-out: residual kinase activity in % of maximal activity
CaMKI(h) = CaMKI(h) (Homo sapiens, UniProt Q14012); assay: as above; assay type: biochemical; settings: inhibitor at 1 μM; read-out: residual kinase activity in % of maximal activity
CaMKIIβ(h) = CaMKIIβ(h) (Homo sapiens, UniProt Q13554); assay: as above; assay type: biochemical; settings: inhibitor at 1 μM; read-out: residual kinase activity in % of maximal activity
Sequence of CaMKIIβ(h) (Q13554 whole entry): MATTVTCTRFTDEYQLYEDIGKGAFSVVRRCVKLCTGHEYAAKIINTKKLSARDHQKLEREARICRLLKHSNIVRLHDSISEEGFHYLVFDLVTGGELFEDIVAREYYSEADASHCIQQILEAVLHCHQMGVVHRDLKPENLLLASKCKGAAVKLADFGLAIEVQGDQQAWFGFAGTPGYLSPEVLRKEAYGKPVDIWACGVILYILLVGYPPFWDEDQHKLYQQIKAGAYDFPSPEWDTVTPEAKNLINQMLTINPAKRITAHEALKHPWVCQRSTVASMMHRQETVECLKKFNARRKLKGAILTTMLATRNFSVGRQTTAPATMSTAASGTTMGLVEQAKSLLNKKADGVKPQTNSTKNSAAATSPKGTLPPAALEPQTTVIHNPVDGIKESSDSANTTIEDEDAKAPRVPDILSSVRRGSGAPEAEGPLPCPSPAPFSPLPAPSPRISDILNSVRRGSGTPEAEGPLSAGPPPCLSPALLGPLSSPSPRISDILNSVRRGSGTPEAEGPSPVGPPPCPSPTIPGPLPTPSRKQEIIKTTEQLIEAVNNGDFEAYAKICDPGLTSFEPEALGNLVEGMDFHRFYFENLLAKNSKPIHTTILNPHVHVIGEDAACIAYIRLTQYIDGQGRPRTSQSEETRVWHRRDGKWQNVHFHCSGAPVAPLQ

CaMKIIγ(h) = CaMKIIγ(h) (Homo sapiens, UniProt Q13555); assay: as above; assay type: biochemical; settings: inhibitor at 1 μM; read-out: residual kinase activity in % of maximal activity
CaMKIIδ(h) = CaMKIIδ(h) (Homo sapiens, UniProt Q13557); assay: as above; assay type: biochemical; settings: inhibitor at 1 μM; read-out: residual kinase activity in % of maximal activity
CaMKIV(h) = CaMKIV(h) (Homo sapiens, UniProt Q16566); assay: as above; assay type: biochemical; settings: inhibitor at 1 μM; read-out: residual kinase activity in % of maximal activity
CDK2/cyclinE(h) = CDK2/cyclinE(h) (Homo sapiens, UniProt P24941); assay: as above; assay type: biochemical; settings: inhibitor at 1 μM
CDK5/p35(h) = CDK5/p35(h) (Homo sapiens, UniProt Q00535); assay: as above; assay type: biochemical; settings: inhibitor at 1 μM; read-out: residual kinase activity in % of maximal activity
cKit(h) = cKit(h) (Homo sapiens, UniProt P10721); assay: as above; assay type: biochemical; settings: inhibitor at 1 μM; read-out: residual kinase activity in % of maximal activity
FAK(h) = FAK(h) (Homo sapiens, UniProt Q05397); assay: as above; assay type: biochemical; settings: inhibitor at 1 μM; read-out: residual kinase activity in % of maximal activity
FGFR1(h) = FGFR1(h) (Homo sapiens, UniProt P11362); assay: as above; assay type: biochemical; settings: inhibitor at 1 μM; read-out: residual kinase activity in % of maximal activity
Flt3(h) = Flt3(h) (Homo sapiens, UniProt P36888); assay: as above; assay type: biochemical; settings: inhibitor at 1 μM; read-out: residual kinase activity in % of maximal activity
Sequence of Flt3(h) (P36888 27-993): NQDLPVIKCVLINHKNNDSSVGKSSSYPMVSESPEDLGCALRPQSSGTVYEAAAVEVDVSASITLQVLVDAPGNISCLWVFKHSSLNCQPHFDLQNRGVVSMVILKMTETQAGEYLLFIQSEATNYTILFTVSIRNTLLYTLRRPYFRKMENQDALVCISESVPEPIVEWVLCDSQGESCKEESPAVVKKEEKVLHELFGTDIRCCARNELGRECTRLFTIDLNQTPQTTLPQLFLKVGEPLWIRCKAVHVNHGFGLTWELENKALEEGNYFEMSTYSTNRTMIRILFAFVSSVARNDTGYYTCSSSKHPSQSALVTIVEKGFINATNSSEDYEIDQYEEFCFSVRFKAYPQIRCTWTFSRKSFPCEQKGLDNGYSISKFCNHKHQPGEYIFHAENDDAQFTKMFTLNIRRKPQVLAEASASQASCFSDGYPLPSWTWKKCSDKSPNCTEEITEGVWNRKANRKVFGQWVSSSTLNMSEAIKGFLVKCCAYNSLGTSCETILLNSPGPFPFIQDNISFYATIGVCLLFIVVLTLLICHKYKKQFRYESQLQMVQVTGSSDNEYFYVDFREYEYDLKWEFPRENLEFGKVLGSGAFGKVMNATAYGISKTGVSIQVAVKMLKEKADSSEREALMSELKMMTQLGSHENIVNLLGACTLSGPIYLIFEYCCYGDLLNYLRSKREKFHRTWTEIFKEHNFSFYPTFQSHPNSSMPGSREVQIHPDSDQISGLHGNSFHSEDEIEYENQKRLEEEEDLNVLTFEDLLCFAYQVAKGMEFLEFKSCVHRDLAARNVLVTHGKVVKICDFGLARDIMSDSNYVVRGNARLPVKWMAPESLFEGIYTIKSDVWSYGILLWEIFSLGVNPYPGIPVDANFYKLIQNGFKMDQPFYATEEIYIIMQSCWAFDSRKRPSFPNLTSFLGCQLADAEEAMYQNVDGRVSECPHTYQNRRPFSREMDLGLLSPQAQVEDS

GSK3α(h) = GSK3α(h) (Homo sapiens, UniProt P49840); assay: as above; assay type: biochemical; settings: inhibitor at 1 μM; read-out: residual kinase activity in % of maximal activity
GSK3β(h) = GSK3β(h) (Homo sapiens, UniProt P49841); assay: as above; assay type: biochemical; settings: inhibitor at 1 μM; read-out: residual kinase activity in % of maximal activity
IGF-1R(h) = IGF-1R(h) (Homo sapiens, UniProt P08069); assay: as above; assay type: biochemical; settings: inhibitor at 1 μM; read-out: residual kinase activity in % of maximal activity
JAK2(h) = JAK2(h) (Homo sapiens, UniProt O60674); assay: as above; assay type: biochemical; settings: inhibitor at 1 μM
JAK3(h) = JAK3(h) (Homo sapiens, UniProt P52333); assay: as above; assay type: biochemical; settings: inhibitor at 1 μM; read-out: residual kinase activity in % of maximal activity
JNK2α2(h) = JNK2α2(h) (Homo sapiens, UniProt P45984); assay: as above; assay type: biochemical; settings: inhibitor at 1 μM
Sequence of JNK2α2(h) (P45984 whole entry): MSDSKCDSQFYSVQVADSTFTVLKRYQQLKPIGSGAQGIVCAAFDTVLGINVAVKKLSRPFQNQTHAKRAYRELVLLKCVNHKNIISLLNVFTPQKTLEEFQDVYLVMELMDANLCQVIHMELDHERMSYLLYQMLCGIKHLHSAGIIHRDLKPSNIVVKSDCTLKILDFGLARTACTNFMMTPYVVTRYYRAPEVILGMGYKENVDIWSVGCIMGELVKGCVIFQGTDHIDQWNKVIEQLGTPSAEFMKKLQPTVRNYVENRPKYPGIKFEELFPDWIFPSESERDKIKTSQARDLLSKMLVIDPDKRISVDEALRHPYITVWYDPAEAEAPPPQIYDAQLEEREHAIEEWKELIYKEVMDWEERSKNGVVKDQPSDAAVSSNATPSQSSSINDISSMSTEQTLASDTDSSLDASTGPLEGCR

KDR(h) = KDR(h) (Homo sapiens, UniProt P35968); assay: as above; assay type: biochemical; settings: inhibitor at 1 μM; read-out: residual kinase activity in % of maximal activity
MAPK1(h) = MAPK1(h) (Homo sapiens, UniProt P27361); assay: as above; assay type: biochemical; settings: inhibitor at 1 μM; read-out: residual kinase activity in % of maximal activity
Sequence of MAPK1(h) (P27361 whole entry): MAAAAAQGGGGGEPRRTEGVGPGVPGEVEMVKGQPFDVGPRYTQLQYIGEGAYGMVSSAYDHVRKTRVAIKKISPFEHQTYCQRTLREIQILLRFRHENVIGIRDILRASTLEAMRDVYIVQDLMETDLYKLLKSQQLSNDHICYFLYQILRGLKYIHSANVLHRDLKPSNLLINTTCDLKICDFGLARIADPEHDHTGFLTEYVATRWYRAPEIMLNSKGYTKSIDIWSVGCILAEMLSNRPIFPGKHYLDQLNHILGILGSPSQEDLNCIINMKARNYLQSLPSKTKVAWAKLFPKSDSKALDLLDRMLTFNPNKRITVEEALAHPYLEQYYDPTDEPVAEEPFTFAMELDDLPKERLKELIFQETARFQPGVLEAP

MAPK2(h) = MAPK2(h) (Homo sapiens, UniProt P28482); assay: as above; assay type: biochemical; settings: inhibitor at 1 μM; read-out: residual kinase activity in % of maximal activity
MEK1(h) = MEK1(h) (Homo sapiens, UniProt Q02750); assay: as above; assay type: biochemical; settings: inhibitor at 1 μM; read-out: residual kinase activity in % of maximal activity
mTOR(h) = mTOR(h) (Homo sapiens, UniProt P42345); assay: as above; assay type: biochemical; settings: inhibitor at 1 μM; read-out: residual kinase activity in % of maximal activity
p70S6K(h) = p70S6K(h) (Homo sapiens, UniProt P23443); assay: as above; assay type: biochemical; settings: inhibitor at 1 μM; read-out: residual kinase activity in % of maximal activity
PAK2(h) = PAK2(h) (Homo sapiens, UniProt Q13177); assay: as above; assay type: biochemical; settings: inhibitor at 1 μM; read-out: residual kinase activity in % of maximal activity
PDGFRβ(h) = PDGFRβ(h) (Homo sapiens, UniProt P09619); assay: as above; assay type: biochemical; settings: inhibitor at 1 μM; read-out: residual kinase activity in % of maximal activity
PDK1(h) = PDK1(h) (Homo sapiens, UniProt O15530); assay: as above; assay type: biochemical; settings: inhibitor at 1 μM; read-out: residual kinase activity in % of maximal activity
Pim-1(h) = Pim-1(h) (Homo sapiens, UniProt P11309); assay: as above; assay type: biochemical; settings: inhibitor at 1 μM; read-out: residual kinase activity in % of maximal activity
Sequence of Pim-1(h) (P11309 whole entry): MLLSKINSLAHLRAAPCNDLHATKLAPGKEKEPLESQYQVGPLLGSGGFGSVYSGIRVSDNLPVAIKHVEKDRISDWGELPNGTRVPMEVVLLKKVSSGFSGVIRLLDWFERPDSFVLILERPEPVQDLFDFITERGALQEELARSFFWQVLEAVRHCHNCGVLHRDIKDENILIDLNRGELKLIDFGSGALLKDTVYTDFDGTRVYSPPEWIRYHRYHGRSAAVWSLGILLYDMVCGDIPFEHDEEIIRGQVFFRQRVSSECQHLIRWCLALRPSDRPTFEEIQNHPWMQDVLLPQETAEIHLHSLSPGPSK

Pim-3(h) = Pim-3(h) (Homo sapiens, UniProt Q86V86); assay: as above; assay type: biochemical; settings: inhibitor at 1 μM; read-out: residual kinase activity in % of maximal activity
PKBγ(h) = PKBγ(h) (Homo sapiens, UniProt Q9Y243); assay: as above; assay type: biochemical; settings: inhibitor at 1 μM; read-out: residual kinase activity in % of maximal activity
PKCα(h) = PKCα(h) (Homo sapiens, UniProt P17252); assay: as above; assay type: biochemical; settings: inhibitor at 1 μM; read-out: residual kinase activity in % of maximal activity
PKCδ(h) = PKCδ(h) (Homo sapiens, UniProt Q05655); assay: as above; assay type: biochemical; settings: inhibitor at 1 μM; read-out: residual kinase activity in % of maximal activity
PKG1α(h) = PKG1α(h) (Homo sapiens, UniProt Q13976); assay: as above; assay type: biochemical; settings: inhibitor at 1 μM; read-out: residual kinase activity in % of maximal activity
PKG1β(h) = PKG1β(h) (Homo sapiens, UniProt Q13976); assay: as above; assay type: biochemical; settings: inhibitor at 1 μM; read-out: residual kinase activity in % of maximal activity
Sequence of PKG1β(h) (Q13976 1-686 isoform Q13976-2): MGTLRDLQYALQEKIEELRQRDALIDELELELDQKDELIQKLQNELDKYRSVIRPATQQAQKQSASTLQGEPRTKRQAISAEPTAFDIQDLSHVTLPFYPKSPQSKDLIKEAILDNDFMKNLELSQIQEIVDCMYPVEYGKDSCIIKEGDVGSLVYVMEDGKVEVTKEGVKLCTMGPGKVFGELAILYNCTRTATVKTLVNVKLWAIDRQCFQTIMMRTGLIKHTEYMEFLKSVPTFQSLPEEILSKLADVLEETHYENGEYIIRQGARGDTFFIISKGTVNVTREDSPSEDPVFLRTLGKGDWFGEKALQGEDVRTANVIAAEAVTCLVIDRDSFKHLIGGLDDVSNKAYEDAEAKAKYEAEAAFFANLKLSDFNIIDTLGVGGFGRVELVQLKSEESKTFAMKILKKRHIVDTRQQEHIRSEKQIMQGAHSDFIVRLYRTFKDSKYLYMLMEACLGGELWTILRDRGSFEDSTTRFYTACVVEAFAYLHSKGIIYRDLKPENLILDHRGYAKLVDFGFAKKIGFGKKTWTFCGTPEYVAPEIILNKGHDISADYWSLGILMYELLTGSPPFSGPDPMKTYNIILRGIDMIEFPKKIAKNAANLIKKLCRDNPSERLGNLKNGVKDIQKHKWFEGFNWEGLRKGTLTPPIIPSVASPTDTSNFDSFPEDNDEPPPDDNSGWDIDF

Ret(h) = Ret(h) (Homo sapiens, UniProt P07949); assay: as above; assay type: biochemical; settings: inhibitor at 1 μM; read-out: residual kinase activity in % of maximal activity
ROCK-II(h) = ROCK-II(h) (Homo sapiens, UniProt O75116); assay: as above; assay type: biochemical; settings: inhibitor at 1 μM; read-out: residual kinase activity in % of maximal activity
SAPK2a(h) = SAPK2a(h) (Homo sapiens, UniProt Q16539); assay: as above; assay type: biochemical; settings: inhibitor at 1 μM
SGK(h) = SGK(h) (Homo sapiens, UniProt O00141); assay: as above; assay type: biochemical; settings: inhibitor at 1 μM; read-out: residual kinase activity in % of maximal activity
Sequence of SGK(h) (O00141 whole entry): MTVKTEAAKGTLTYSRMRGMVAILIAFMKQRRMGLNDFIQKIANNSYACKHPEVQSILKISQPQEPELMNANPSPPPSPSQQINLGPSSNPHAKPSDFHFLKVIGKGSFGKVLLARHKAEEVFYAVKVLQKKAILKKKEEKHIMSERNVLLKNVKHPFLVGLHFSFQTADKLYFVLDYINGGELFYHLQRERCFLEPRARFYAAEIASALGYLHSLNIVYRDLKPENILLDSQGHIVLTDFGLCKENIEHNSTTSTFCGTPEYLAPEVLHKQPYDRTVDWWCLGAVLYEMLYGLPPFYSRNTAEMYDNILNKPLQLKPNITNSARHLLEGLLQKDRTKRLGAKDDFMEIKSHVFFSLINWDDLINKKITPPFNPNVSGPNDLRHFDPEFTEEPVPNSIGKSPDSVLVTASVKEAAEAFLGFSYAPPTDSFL

[3] = target: PI3 Kinase (p110a/p85a)(h) (Homo sapiens, UniProt P42336); assay: as above; assay type: biochemical; settings: inhibitor at 1 μM; read-out: residual kinase activity in % of maximal activity
[4] = tested on: GFP–CaMKII in rat hippocampal neurons; assay: cLTP-induced CaMKII synaptic enrichment in dissociated hippocampal cultures (GFP–CaMKII WT); assay type: cell-based; settings: AS105

In the case of `Nc1ncnc2c1ncn2[C@@H]1O[C@H](COP(=O)(O)OP(=O)(O)O)[C@@H](O)[C@H]1O` [ADP], the “bound CaMKIIα (immunoblot, relative)” value ([1]; 4 mM ADP) is reported as 2.712 and 2.4126 and 1.817 and the “binding to immobilized GST-2BC (immunoblot)” value [2] is reported as 54.536 and 63.536 and 53.536.

`NCCNc1cccc(-c2ccnc(Nc3cccc(Cl)c3)n2)c1` [AS105] showed a remaining activity at 1 µM (Arg(h)) of 87%, a remaining activity at 1 µM (AMPKα1(h)) of 38% and a remaining activity at 1 µM (Aurora-C(h)) of 57%. The remaining activity at 1 µM (CaMKI(h)) was 83%, the remaining activity at 1 µM (CaMKIIβ(h)) was 6% and the remaining activity at 1 µM (CaMKIIγ(h)) was 2%. The remaining activity at 1 µM (CaMKIIδ(h)) was 2%, the remaining activity at 1 µM (CaMKIV(h)) was 101% and the “residual kinase activity in % of maximal activity” value (from here on “residual kinase activity in %”) (CDK2/cyclinE(h)) was 2%. It also gave a remaining activity at 1 µM (CDK5/p35(h)) of 1%, a remaining activity at 1 µM (cKit(h)) of 91% and a remaining activity at 1 µM (FAK(h)) of 75%. For the same compound, the remaining activity at 1 µM (FGFR1(h)) was 91%, the remaining activity at 1 µM (Flt3(h)) was 2% and the remaining activity at 1 µM (GSK3α(h)) was 6%. The remaining activity at 1 µM (GSK3β(h)) was 11%, the remaining activity at 1 µM (IGF-1R(h)) was 121% and the “residual kinase activity in %” value (JAK2(h)) was 134%. For the same compound, the remaining activity at 1 µM (JAK3(h)) was 89%, the “residual kinase activity in %” value (JNK2α2(h)) was 79% and the remaining activity at 1 µM (KDR(h)) was 28%. It also gave a remaining activity at 1 µM (MAPK1(h)) of 105%, a remaining activity at 1 µM (MAPK2(h)) of 106% and a remaining activity at 1 µM (MEK1(h)) of 111%. It also gave a remaining activity at 1 µM (mTOR(h)) of 102%, a remaining activity at 1 µM (p70S6K(h)) of 77% and a remaining activity at 1 µM (PAK2(h)) of 104%. It also gave a remaining activity at 1 µM (PDGFRβ(h)) of 80%, a remaining activity at 1 µM (PDK1(h)) of 109% and a remaining activity at 1 µM (Pim-1(h)) of 69%. The remaining activity at 1 µM (Pim-3(h)) was 109%, the remaining activity at 1 µM (PKBγ(h)) was 76% and the remaining activity at 1 µM (PKCα(h)) was 51%. The remaining activity at 1 µM (PKCδ(h)) was 73%, the remaining activity at 1 µM (PKG1α(h)) was 61% and the remaining activity at 1 µM (PKG1β(h)) was 68%. The remaining activity at 1 µM (Ret(h)) was 55%, the remaining activity at 1 µM (ROCK-II(h)) was 43% and the “residual kinase activity in %” value (SAPK2a(h)) was 99%. The remaining activity at 1 µM (SGK(h)) was 97%, the remaining activity at 1 µM [3] was 96% and the “effect on GluN2B binding” value ([1]; AS105) was “without inhibiting”. For the same compound, the “bound CaMKIIα (immunoblot, relative)” value ([1]; 10 μM AS105, no nucleotide) was 2.79 and 2.715 and 1.563 and the “effect on stimulation-induced movement to excitatory synapses” value [4] was “without inhibiting”.

From paper PMC10482691, “LTP induction by structural rather than enzymatic functions of CaMKII” (Nature, 2023)
